Article PMC10138721, “Investigation of the Compatibility between Warheads and Peptidomimetic Sequences of Protease Inhibitors—A Comprehensive Reactivity and Selectivity Study” (International Journal of Molecular Sciences, 2023)
“Also recorded” adds a separate entry of the source. Read-outs that look alike come from different tables or passages of the source.

Key:
human cathepsin S (CatS) = molecular target: T1, human cathepsin S (CatS) (Homo sapiens, UniProt P25774); experiment: Fluorometric inhibition assay, cathepsin S; format: biochemical
T1 construct: purchased Sigma Aldrich

rhodesain = rhodesain (Trypanosoma brucei rhodesiense, UniProt Q95PM0); experiment: Fluorometric inhibition assay, rhodesain; format: biochemical; settings: for Ki: Rhodesain
proteasome β5-subunit = molecular target: T2, proteasome β5-subunit (Homo sapiens, UniProt P20618+P28074); experiment: Fluorometric inhibition assay, proteasome β5-subunit; format: biochemical
T2 construct: purchased Enzo Life sciences

[1] = molecular target: T3, urokinase-type plasminogen activator (uPA) (Homo sapiens, UniProt P00749); experiment: Fluorometric inhibition assay, uPA; format: biochemical
T3 construct: purchased Sigma Aldrich

[2] = molecular target: SARS-CoV-2 main protease (M^pro) (Severe acute respiratory syndrome coronavirus 2, UniProt P0DTD1); experiment: Fluorometric (FRET) inhibition assay, SARS-CoV-2 M^pro; format: biochemical; settings: initial screen at 20 µM, cut-off 80% inhibition
[3] = Reactivity test of warhead probes with PhEtSH + Et3N (NMR/LC-MS); format: physicochemical; settings: for reactivity with PhEtSH + Et3N (deprotonated thiol), in words: DMSO-d6, up to 240 min
From the text: (§1) To investigate the reactivity between the different warheads towards the three classes of proteases (serine, threonine and cysteine proteases), their behavior in model systems under the same reaction conditions (solvent, nucleophile and base) using either NMR or LC-MS analysis was investigated. We used reactivity probes with a Boc-L-Leu-(warhead) sequence. Leucin was chosen as a P1 amino acid to minimize influences of the side chain and due to synthetic accessibility. 2-Phenylethanethiol was used as a model nucleophile to mimic the thiol moiety of cysteine proteases, and sodium ethoxide was used as a serine/threonine replacement. DMSO-d6 was used as solvent. Under these conditions, the nucleophile is deprotonated, simulating the activated serine or threonine in the catalytic triad of serine and threonine proteases, while ethanol as protonated alcohol species turned out to be unreactive in preliminary test reactions. The reactivity tests using 2-phenylethanthiol were carried out in the presence and absence of triethylamine as a base. This allowed for a reactivity comparison of the warheads towards protonated and deprotonated nucleophilic thiol species. Generating a deprotonated thiol species in the presence of triethylamine simulates the deprotonated cysteine in the catalytic dyad of cysteine proteases. Scheme 8 illustrates the reaction of the reactivity assay with both model nucleophiles and the vinyl sulfone moiety 109 as an example.
(§2) The reactivity tests of all Michael acceptors, 109, 110, 111 and 112, the α-ketobenzothiazole 115 and nitrile 117 were investigated using an NMR-based analysis method, while the β-lactam 108 reactivity was investigated via LC-MS, due to its lack of proton signals, which could be used for evaluation of the reactivity in the ^1H-NMR studies, and the irreversible reaction mechanism, which allowed the LC-MS analysis. […] Formation of the expected adducts with the nitrile 117 (PhEtSH/PhEtS^–/EtONa), the α-ketobenzothiazole 115 (PhEtSH/PhEtS^–) and the nitroalkene 111 (EtONa) could not be observed. This may have been due to the covalent reversible reaction mechanism of the nitrile and α-ketobenzothiazole and the overall difficult ionization of the specific compounds by an electron spray ionization mass spectrometer.
(§3) Method A (NMR): ^1H-NMR spectra were recorded for the respective warhead and nucleophile mixture, before the addition of the nucleophile (0 min) and after 5, 30, 60, 120 and 240 min reaction time. For quantification, the double bond-signals (doublet/doublet of doublets, around 7.4–6.7 ppm) of the Michael acceptors were integrated relative to 1,3-dioxolane as an internal standard. The acetal CH2 signal of the internal standard at 5.3 ppm was used as a reference.
(§4) The α-ketobenzothiazole 115 and nitrile 117 were similarly analyzed by ^13C-NMR. Therefore, the corresponding ^13C-leucin derivates were synthesized (Scheme 7). Quantifications of the reactions were carried out by using the integral of the carbonyl carbon atom signal at 195 ppm for the α-ketobenzothiazole and 120 ppm for the nitrile moiety. The reference signal of DMSO-d6 was set to 39.52 ppm.
(§5) Method B (LC-MS): The reactivity of the β-lactam test compound 108 with the nucleophiles was investigated using an LC-MS-based method. To quantify the conversion, the AUCs were determined at 254 nm. In Figure 3, the UV spectra of the test reaction of the β-lactam 108 with EtONa are shown exemplarily.
(§6) The β-lactam 108 (0.07 mmol, 1eq) was solved in DMSO-d6 (0.5 mL). The reaction was measured in time intervals before (0 min), 5, 30, 60, 120 and 240 mins after the addition of the corresponding nucleophile (PhEtSH/EtONa, 2 eq) in presence of Et3N (2 eq) or not. In case of PhEtSH as the nucleophile the reaction got quenched by pouring 10 µL of the reaction mixture into a solution of 25 mM TRIS (pH 7.00) and 27 mM maleimide in a 1:1 mixture of acetonitrile/H2O (990 µL). For the reaction with EtONa as the nucleophile, the reaction solution […]

[4] = Reactivity test of warhead probes with EtONa (NMR/LC-MS); format: physicochemical; settings: for reactivity with EtONa, in words: DMSO-d6, up to 240 min
From the text: as §1, §2, §3, §4, §5, §6

[5] = Reactivity test of warhead probes with PhEtSH without base (NMR/LC-MS); format: physicochemical; settings: non-basic conditions; for reactivity with PhEtSH (protonated thiol), in words: DMSO-d6, up to 240 min
From the text: as §1, §2, §3, §4, §5, §6

[6] = initial screen at 20 µM, cut-off 80% inhibition

T1 sequence (P25774 115-331): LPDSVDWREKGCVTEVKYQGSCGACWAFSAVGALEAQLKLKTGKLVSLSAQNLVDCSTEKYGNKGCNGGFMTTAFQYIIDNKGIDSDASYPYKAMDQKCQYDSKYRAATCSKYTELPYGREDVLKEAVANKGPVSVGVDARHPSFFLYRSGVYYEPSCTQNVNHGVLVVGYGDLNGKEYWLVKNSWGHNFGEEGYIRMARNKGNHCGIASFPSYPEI
Chain of rhodesain (Q95PM0 entry or part of it): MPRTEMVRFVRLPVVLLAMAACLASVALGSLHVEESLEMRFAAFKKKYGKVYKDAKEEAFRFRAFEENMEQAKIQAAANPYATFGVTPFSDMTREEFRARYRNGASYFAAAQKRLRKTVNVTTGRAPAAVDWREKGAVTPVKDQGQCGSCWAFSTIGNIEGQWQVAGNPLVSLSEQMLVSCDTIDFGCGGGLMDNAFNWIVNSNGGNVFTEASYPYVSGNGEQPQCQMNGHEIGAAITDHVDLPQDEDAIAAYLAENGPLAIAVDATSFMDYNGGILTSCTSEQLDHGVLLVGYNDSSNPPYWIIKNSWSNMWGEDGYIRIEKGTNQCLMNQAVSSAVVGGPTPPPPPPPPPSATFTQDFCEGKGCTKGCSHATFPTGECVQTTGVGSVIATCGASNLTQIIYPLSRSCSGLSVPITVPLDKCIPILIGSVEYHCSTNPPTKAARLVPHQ

CC(C)C[C@@H](/C=C(\F)S(=O)(=O)c1ccccc1)NC(=O)[C@H](Cc1ccccc1)NC(=O)c1cnccn1 [compound 55] gave a Ki (human cathepsin S (CatS); Ki, CatS) of 934 ± 138 nM, a Ki (human cathepsin S (CatS); pKi, Cathepsin S inhibition) of 1000 nM and a Ki (rhodesain) of 462 ± 39 nM. For the same compound, the “inhibition of the proteasome β5-subunit, in words” value (“inhibition” below) (proteasome β5-subunit) was “None”.
For CC(C)C[C@@H](C=C[N+](=O)[O-])NC(=O)[C@H](Cc1ccccc1)NC(=O)c1cnccn1 [compound 59], the Ki (human cathepsin S (CatS); Ki, CatS) was 619 ± 54 nM, the Ki (rhodesain) was 2 ± 5 nM and the “inhibition” value (proteasome β5-subunit) was “None”.
With CC(C)CC(NC(=O)C(Cc1ccccc1)NC(=O)c1cnccn1)C(=O)c1nc2ccccc2s1 (centres unmarked) [compound 62] the “inhibition” value (proteasome β5-subunit) was “None and no inhibition”.
For CCOC(=O)/C=C/C(=O)[C@H](CC(C)C)NC(=O)[C@H](Cc1ccccc1)NC(=O)c1cnccn1 [compound 68], the “activity against CatS, in words” value (human cathepsin S (CatS)) was “essentially inactive”, the Ki (rhodesain) was 9 ± 1 nM and the kinact (rhodesain; read-out: kinact, Rhodesain) was 0.006 ± 0.001 s⁻¹. For the same compound, the “inhibition” value (proteasome β5-subunit) was “None”.
In the case of CC(C)C[C@H](NC(=O)[C@H](Cc1ccccc1)NC(=O)c1cnccn1)C(=O)N[C@H]1CN(c2ccccc2)C1=O [compound 72], the “inhibition” value (proteasome β5-subunit) is reported as “None and did not inhibit”.
For CC(C)CC(C#N)NC(=O)C(Cc1ccccc1)NC(=O)c1cnccn1 (centres unmarked) [compound 74], the Ki (human cathepsin S (CatS); Ki, CatS) was 238 ± 23 nM, the Ki (rhodesain) was 560 ± 267 nM and the “inhibition” value (proteasome β5-subunit) was “None and no inhibition and missing inhibition”.
In the case of COC(=O)[C@H](C[C@@H]1CCNC1=O)NC(=O)OC(C)(C)C [compound 85], the “inhibition” value (proteasome β5-subunit; [6]) is reported as “None”.
For CC(=O)NCC(=O)NC(C(=O)N[C@@H](C)C(=O)N[C@@H](CCCNC(=N)N)C(=O)c1nc2ccccc2s1)[C@H](C)O (some centres unmarked) [compound 103], the Ki ([1]; Table S1; a) calculated from IC50 with Cheng–Prusoff, n.a. = not active (<80% inhibition at 20 µM), read-out: Ki, uPA) was 141 ± 27 nM, the Ki ([1]; calculated from Ki, –log10(Ki/M), read-out: pKi, uPA inhibition (converted)) was 126 nM and the “activity against uPA, in words” value [1, 6] was “active; also recorded: displayed inhibitory activity”. The “activity against CatS, in words” value (human cathepsin S (CatS); [6]) was “not inhibited; also recorded: not active at 20 µM”, the “activity against rhodesain, in words” value (rhodesain; [6]) was “not inhibited; also recorded: inactive” and the “inhibition” value (proteasome β5-subunit; [6]) was “not inhibited”. The “activity against M^pro, in words” value [2] was “not inhibited”.
With CC(C)CC(/C=C/[N+](=O)[O-])NC(=O)OC(C)(C)C (centres unmarked) [compound 111] the “maximum conversion with PhEtSH + Et3N” value ([3]; DMSO-d6, after 240 min) was 82%, the “reactivity with PhEtSH + Et3N (deprotonated thiol), in words” value (“reactivity with PhEtSH + Et3N” below) [3] was “high reactivity” and the “conversion with EtONa” value ([4]; DMSO-d6, after 240 min) was 84%. The “reactivity with PhEtSH (protonated thiol), in words” value [5] was “conversion was not observed”.
With CCOC(=O)/C=C/C(=O)C(CC(C)C)NC(=O)OC(C)(C)C (centres unmarked) [compound 112] the “time to full conversion with PhEtSH + Et3N” value ([3]; DMSO-d6) was 5 min, the “reactivity with PhEtSH + Et3N” value [3] was “high reactivity” and the “time to full conversion with EtONa” value ([4]; DMSO-d6) was 5 min. For the same compound, the “reactivity with EtONa, in words” value [4] was “unspecific conversion”, the “conversion with PhEtSH” value ([5]; DMSO-d6, after 240 min) was 92% and the “reactivity with PhEtSH (protonated thiol), in words” value [5] was “did indeed react; also recorded: high reactivity”.
In the case of CC(C)CC(NC(=O)OC(C)(C)C)[13C](=O)c1nc2ccccc2s1 (centres unmarked) [compound 115], the “conversion with PhEtSH + Et3N” value ([3]; DMSO-d6, time not stated) is reported as “around 30%”, the “reactivity with PhEtSH + Et3N” value [3] is reported as “strong reactivity” and the “maximum conversion with EtONa” value ([4]; DMSO-d6, maximum reached after 60 min) is reported as 37%. The “reactivity with EtONa, in words” value [4] was “strong reactivity”, the “conversion with PhEtSH” value ([5]; DMSO-d6, after 240 min) was 18% and the “reactivity with PhEtSH (protonated thiol), in words” value [5] was “did indeed react”.
With CC(C)C[C@@H]([13C]#N)NC(=O)OC(C)(C)C [compound 117] the “reactivity with PhEtSH + Et3N” value [3] was “Every warhead except the β-lactam 108 and the nitrile 117 reacted; also recorded: no reaction”, the “conversion with EtONa” value ([4]; DMSO-d6, at 5 min) was 10% and the “conversion with PhEtSH” value ([5]; DMSO-d6, time not stated) was 7%. The “reactivity with PhEtSH (protonated thiol), in words” value [5] was “did indeed react”.
